Results taken from ChEMBL document CHEMBL4330138, “Discovery of new indole-based acylsulfonamide Nav1.7 inhibitors” (Bioorg Med Chem Lett, 2019).
pIC50: −log10 of the molar value.

Columns and labels:
[1] = target: T1, Sodium channel protein type 9 subunit alpha (Homo sapiens, UniProt Q15858); experiment: Inhibition of human Nav1.7 at -60 mV holding potential by cell-based IonWorks barracuda automated electrophysiology method
Target sequence in this assay (Q15858 whole entry): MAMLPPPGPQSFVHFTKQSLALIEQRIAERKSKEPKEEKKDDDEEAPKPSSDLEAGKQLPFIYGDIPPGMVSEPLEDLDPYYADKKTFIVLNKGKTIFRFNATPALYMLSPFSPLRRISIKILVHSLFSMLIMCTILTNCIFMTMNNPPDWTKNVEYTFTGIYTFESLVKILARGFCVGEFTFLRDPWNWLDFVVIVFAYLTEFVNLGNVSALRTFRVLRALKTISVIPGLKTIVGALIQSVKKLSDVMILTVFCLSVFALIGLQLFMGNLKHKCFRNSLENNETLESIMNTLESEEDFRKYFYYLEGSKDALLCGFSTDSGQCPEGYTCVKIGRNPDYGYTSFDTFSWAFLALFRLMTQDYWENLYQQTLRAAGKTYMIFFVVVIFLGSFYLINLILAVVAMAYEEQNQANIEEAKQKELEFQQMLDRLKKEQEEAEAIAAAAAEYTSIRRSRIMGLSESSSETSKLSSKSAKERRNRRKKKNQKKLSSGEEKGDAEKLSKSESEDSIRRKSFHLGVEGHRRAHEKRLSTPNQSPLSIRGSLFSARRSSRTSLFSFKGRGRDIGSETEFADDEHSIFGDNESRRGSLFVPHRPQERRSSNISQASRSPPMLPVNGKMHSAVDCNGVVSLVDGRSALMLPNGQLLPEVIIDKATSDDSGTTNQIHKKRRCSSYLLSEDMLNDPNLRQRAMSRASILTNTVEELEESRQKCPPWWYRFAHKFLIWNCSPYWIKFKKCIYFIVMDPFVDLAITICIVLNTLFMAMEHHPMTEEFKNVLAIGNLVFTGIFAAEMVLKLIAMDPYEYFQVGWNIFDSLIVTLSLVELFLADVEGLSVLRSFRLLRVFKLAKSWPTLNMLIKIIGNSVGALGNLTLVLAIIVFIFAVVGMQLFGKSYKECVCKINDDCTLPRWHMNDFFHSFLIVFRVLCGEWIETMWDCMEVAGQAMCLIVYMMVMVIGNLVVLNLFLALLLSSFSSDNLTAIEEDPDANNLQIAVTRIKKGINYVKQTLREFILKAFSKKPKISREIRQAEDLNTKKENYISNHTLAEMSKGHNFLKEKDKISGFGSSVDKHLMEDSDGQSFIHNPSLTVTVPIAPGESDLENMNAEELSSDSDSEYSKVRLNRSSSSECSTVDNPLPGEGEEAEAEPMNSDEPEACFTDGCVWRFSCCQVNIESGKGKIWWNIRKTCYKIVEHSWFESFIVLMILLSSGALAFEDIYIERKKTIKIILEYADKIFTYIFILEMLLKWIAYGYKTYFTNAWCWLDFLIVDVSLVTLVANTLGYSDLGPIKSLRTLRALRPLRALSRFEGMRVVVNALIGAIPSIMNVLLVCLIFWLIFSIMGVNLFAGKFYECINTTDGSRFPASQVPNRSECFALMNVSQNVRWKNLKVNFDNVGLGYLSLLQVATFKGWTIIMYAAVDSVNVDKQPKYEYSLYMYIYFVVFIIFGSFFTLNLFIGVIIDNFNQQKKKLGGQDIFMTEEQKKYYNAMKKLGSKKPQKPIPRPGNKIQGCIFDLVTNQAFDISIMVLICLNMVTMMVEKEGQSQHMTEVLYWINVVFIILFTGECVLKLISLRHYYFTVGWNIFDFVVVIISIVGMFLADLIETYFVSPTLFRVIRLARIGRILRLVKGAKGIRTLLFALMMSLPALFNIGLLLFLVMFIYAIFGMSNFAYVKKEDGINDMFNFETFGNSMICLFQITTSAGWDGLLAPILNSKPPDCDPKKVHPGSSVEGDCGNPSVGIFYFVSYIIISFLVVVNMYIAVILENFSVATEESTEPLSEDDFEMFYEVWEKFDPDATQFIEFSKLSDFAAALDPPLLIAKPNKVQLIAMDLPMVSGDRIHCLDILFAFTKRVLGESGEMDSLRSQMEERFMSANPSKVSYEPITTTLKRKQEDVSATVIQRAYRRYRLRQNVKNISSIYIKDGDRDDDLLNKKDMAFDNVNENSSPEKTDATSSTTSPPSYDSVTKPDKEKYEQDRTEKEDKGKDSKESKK

[2] = target: Sodium channel protein type 5 subunit alpha (Homo sapiens, UniProt Q14524); experiment: Inhibition of human Nav1.5 at -50 mV holding potential by cell-based IonWorks barracuda automated electrophysiology method; assay type: ADME
[3] = target: T1, Sodium channel protein type 9 subunit alpha; experiment: Inhibition of human Nav1.7 at -60 mV holding potential by cell-based manual patch clamp electrophysiology method
Target sequence in this assay (Q15858 whole entry): as above

[4] = target: T1, Sodium channel protein type 9 subunit alpha; experiment: Ratio of IC50 for human Nav1.7 at -60 mV holding potential by cell-based manual patch clamp electrophysiology method to IC50 for human Nav1.7 at -60 mV holding potential by cell-based IonWorks barracuda automated electrophysiology method
Target sequence in this assay (Q15858 whole entry, looked up): as the sequence (Q15858 whole entry) above

[5] = target: T1, Sodium channel protein type 9 subunit alpha; experiment: Ratio of IC50 for human Nav1.7 at -60 mV holding potential by cell-based IonWorks barracuda automated electrophysiology method to IC50 for human Nav1.7 at -60 mV holding potential by cell-based manual patch clamp electrophysiology method
Target sequence in this assay (Q15858 whole entry, looked up): as the sequence (Q15858 whole entry) above

Homo sapiens = organism: Homo sapiens; experiment: Selectivity ratio of IC50 for human Nav1.5 to IC50 for human Nav1.7
[6] = Efflux ratio of permeability from basolateral to apical side over apical to basolateral side in human Caco2 cells; assay type: ADME, cell-based; details: Caco-2
[7] = Permeability across basolateral to apical side in human Caco2 cells; assay type: ADME, cell-based; details: Caco-2, read-out: permeability
[8] = Permeability across apical to basolateral side in human Caco2 cells; assay type: ADME, cell-based; details: Caco-2, read-out: permeability
[9] = target: CYP450 (Cytochrome P450 family, isoform not stated) (Homo sapiens, UniProt P04798+P05177+P05181+P08684+P10632+P10635+P11509+P11712+P13584+P20813+P20815+P20853+P24462+P24903+P33260+P33261+P51589+P78329+P98187+Q02928+Q08477+Q16678+Q16696+Q5TCH4+Q6VVX0+Q7Z449+Q8TAV3+Q96SQ9+Q9HB55); experiment: Inhibition of human CYP450; assay type: ADME, protein assay

Chain of Sodium channel protein type 5 subunit alpha (Q14524 whole entry): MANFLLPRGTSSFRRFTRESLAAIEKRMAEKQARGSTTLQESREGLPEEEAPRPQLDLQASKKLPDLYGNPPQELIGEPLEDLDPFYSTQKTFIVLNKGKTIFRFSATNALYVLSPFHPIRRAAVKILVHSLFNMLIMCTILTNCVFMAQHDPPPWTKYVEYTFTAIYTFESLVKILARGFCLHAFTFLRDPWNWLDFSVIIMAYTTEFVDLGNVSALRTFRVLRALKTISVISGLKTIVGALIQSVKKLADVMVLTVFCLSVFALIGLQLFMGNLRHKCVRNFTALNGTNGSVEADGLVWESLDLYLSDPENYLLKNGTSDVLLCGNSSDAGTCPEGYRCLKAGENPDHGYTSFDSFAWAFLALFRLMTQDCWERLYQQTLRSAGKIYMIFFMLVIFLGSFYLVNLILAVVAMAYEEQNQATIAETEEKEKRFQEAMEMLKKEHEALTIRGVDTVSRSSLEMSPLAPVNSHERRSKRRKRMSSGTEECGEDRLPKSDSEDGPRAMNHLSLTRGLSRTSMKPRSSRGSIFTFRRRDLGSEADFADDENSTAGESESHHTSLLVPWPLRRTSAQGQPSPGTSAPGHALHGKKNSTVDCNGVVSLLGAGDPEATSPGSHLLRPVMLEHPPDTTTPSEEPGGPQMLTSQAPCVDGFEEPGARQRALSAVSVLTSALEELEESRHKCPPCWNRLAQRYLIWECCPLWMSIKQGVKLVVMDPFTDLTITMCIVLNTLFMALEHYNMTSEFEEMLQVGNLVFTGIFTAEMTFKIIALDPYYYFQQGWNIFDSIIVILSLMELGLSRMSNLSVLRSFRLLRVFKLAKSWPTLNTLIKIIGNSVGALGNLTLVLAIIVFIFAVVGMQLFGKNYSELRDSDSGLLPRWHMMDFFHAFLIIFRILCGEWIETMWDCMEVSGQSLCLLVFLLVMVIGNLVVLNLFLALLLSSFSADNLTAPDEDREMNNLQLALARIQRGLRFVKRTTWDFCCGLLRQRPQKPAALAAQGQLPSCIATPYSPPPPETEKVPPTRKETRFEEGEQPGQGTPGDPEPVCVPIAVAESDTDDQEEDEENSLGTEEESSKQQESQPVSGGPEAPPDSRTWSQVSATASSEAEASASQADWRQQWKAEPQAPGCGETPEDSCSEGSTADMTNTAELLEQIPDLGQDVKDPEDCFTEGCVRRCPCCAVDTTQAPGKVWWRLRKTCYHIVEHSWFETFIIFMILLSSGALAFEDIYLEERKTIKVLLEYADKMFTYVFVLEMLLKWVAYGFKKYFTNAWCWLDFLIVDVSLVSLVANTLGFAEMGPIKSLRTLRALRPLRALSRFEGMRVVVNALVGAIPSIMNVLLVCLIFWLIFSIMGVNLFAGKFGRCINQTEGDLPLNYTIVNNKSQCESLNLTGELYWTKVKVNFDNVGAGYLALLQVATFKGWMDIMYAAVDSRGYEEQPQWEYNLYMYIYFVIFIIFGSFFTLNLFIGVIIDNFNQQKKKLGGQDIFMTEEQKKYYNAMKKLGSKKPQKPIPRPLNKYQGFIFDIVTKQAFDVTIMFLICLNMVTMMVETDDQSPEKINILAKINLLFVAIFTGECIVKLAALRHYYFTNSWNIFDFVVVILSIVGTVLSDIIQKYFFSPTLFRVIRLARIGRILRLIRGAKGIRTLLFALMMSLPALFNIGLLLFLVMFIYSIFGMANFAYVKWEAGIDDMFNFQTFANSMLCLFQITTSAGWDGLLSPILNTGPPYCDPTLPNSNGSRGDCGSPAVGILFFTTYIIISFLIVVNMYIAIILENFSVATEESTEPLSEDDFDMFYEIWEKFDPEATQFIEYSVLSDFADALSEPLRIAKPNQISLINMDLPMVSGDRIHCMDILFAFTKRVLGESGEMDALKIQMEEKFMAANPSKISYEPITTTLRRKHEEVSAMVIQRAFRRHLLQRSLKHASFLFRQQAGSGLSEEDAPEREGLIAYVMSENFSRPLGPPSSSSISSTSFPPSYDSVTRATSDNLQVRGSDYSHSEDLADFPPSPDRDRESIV

| pIC50 [1] | SMILES | pIC50 [2] | other results |
| --- | --- | --- | --- |
| 4.70 | Cn1cc(C2=CCOCC2)c2ccc(C(=O)NS(=O)(=O)C3CC3)cc21 | < 4.52 | – |
| – | Cc1nn(-c2cnc(OCC3(C)CC3)c(Cl)c2)c2ccc(C(=O)NS(C)(=O)=O)cc12 | – | pIC50 [3]: 8.10 |
| < 4.52 | Cn1cc(C2CCNCC2)c2ccc(C(=O)NS(=O)(=O)C3CC3)cc21 | < 4.52 | – |
| 7.32 | Cn1cc(C2CCCC(C)(C)C2)c2ccc(C(=O)NS(=O)(=O)C3CC3)cc21 (stereo not drawn) | 5.39 | – |
| – | Cn1c(-c2ccc(N3CCCC3)nc2)c(C2CCCCC2)c2ccc(C(=O)NS(=O)(=O)C3CC3)cc21 | – | pIC50 [3]: 7.42 |
| 7.14 | Cc1cn(C2C=CCCC2)c2ccc(C(=O)NS(=O)(=O)C3CC3)cc12 (stereo not drawn) | 6.34 | – |
| 7.35 | Cn1cc(C2CCC(C(C)(C)C)CC2)c2ccc(C(=O)NS(=O)(=O)C3CC3)cc21 (stereo not drawn) | – | – |
| 6.91 | Cn1c(-c2ccc(C#N)nc2)c(C2CCCCC2)c2ccc(C(=O)NS(=O)(=O)C3CC3)cc21 | – | pIC50 [3]: 6.44; Ratio IC50 [4]: 3 |
| 6.71 | COc1ncc(-c2c(C3CCCCC3)c3ccc(C(=O)NS(=O)(=O)C4CC4)cc3n2C)cn1 | – | pIC50 [3]: 7.34; Ratio IC50 [5]: 4 |
| < 4.52 | Cn1cc(C2(C)CCCCO2)c2ccc(C(=O)NS(=O)(=O)C3CC3)cc21 (stereo not drawn) | < 4.52 | – |
| < 4.52 | Cn1ccc2ccc(C(=O)NS(=O)(=O)C3CC3)cc21 | < 4.52 | – |
| 7.38 | Cn1cc(C2CCCCC2)c2ccc(C(=O)NS(=O)(=O)C3CC3)cc21 | 5.62 | pIC50 [3]: 7.26; Ratio IC50 (Homo sapiens): 57 |
| 5.92 | CCC(c1cn(C)c2cc(C(=O)NS(=O)(=O)C3CC3)ccc12)C(C)(C)C (stereo not drawn) | < 4.52 | – |
| < 4.52 | O=C(NS(=O)(=O)C1CC1)c1ccc2c(C3CCCCC3)c3n(c2c1)CCCCC3O (stereo not drawn) | – | – |
| 7.21 | C[C@H]1CC[C@@H](c2cn(C)c3cc(C(=O)NS(=O)(=O)C4CC4)ccc23)C1 | 5.27 | – |
| – | Cn1c(-c2cnc(N3CCOCC3)nc2)c(C2CCCCC2)c2ccc(C(=O)NS(=O)(=O)C3CC3)cc21 | – | pIC50 [3]: 7.52 |

| pIC50 [1] | SMILES | pIC50 [2] | other results |
| --- | --- | --- | --- |
| < 4.52 | Cn1cc(C2CCCNC2)c2ccc(C(=O)NS(=O)(=O)C3CC3)cc21 (stereo not drawn) | < 4.52 | – |
| – | COc1ncc(-c2c(C3CCCCC3)c3ccc(C(=O)NS(=O)(=O)C4CC4)cc3n2C)cc1C#N | – | pIC50 [3]: 7.07 |
| 6.20 | Cn1cc(C2=CCN(C(=O)OC(C)(C)C)CC2)c2ccc(C(=O)NS(=O)(=O)C3CC3)cc21 | < 4.52 | – |
| 7.52 | Cn1cc(C2CCCCC2)c2cc(F)c(C(=O)NS(=O)(=O)C3CC3)cc21 | < 5.00 | pIC50 [3]: 7.52 to 7.85; efflux ratio [6]: 1.2; Papp B→A [7]: 16 ×10⁻⁶ cm/s; Papp A→B [8]: 12.9 ×10⁻⁶ cm/s; pIC50 [9]: < 5.00 |
| 7.10 | Cn1cc(C2C3CC4CC(C3)CC2C4)c2ccc(C(=O)NS(=O)(=O)C3CC3)cc21 (stereo not drawn) | 5.08 | – |
| 6.94 | Cn1cc(C2CCCCCC2)c2ccc(C(=O)NS(=O)(=O)C3CC3)cc21 | – | – |
| 6.41 | Cn1cc(C2CCCN(C(=O)OC(C)(C)C)C2)c2ccc(C(=O)NS(=O)(=O)C3CC3)cc21 (stereo not drawn) | < 4.52 | – |
| < 4.52 | CN1CCC(c2cn(C)c3cc(C(=O)NS(=O)(=O)C4CC4)ccc23)CC1 | < 4.52 | – |
| 5.96 | Cn1cc(C(C)(C)C)c2ccc(C(=O)NS(=O)(=O)C3CC3)cc21 | < 4.52 | – |
| 6.29 | C[C@@H]1CC[C@@H](c2cn(C)c3cc(C(=O)NS(=O)(=O)C4CC4)ccc23)C1 | < 4.52 | – |
| 7.43 | Cc1cn(C2CCCCC2)c2ccc(C(=O)NS(=O)(=O)C3CC3)cc12 | 4.89 | efflux ratio [6]: 2.1; Papp B→A [7]: 21.9 ×10⁻⁶ cm/s; Papp A→B [8]: 10.6 ×10⁻⁶ cm/s; pIC50 [9]: < 5.00 |
| 5.82 | O=C(NS(=O)(=O)C1CC1)c1ccc2c(C3CCCCC3)c3n(c2c1)CCCCC3=O | – | – |
| 6.41 | Cn1cc(C2CCN(C(=O)OC(C)(C)C)CC2)c2ccc(C(=O)NS(=O)(=O)C3CC3)cc21 | < 4.52 | pIC50 [3]: 6.42 |
| 6.36 | Cn1c(-c2ccoc2)c(C2CCCCC2)c2ccc(C(=O)NS(=O)(=O)C3CC3)cc21 | – | – |
| < 4.52 | Cc1cn(C)c2cc(C(=O)NS(=O)(=O)C3CC3)ccc12 | < 4.52 | – |
| 6.44 | Cn1cc(C2CCC2)c2ccc(C(=O)NS(=O)(=O)C3CC3)cc21 | 5.17 | – |

| SMILES | pIC50 [1] | pIC50 [2] | other results |
| --- | --- | --- | --- |
| Cn1cc(C2=CCNCC2)c2ccc(C(=O)NS(=O)(=O)C3CC3)cc21 | < 4.52 | < 4.52 | – |
| Cn1cc(C2C3CC4CC2CN(C4)C3)c2ccc(C(=O)NS(=O)(=O)C3CC3)cc21 (stereo not drawn) | < 4.52 | < 4.52 | – |
